According to US20120122727A1, “IN VITRO METHOD FOR PREDICTING WHETHER A COMPOUND IS GENOTOXIC IN VIVO” (priority 2009, published 2012):

System: primary mouse hepatocytes
Experiment: Gene expression (Affymetrix Mouse Genome 430 2.0) in primary mouse hepatocytes, true vs false GTX, 24 h and 48 h
Details: log2, corrected for vehicle control

SMILES: c1ccc2c(c1)cc1ccc3cccc4ccc2c1c34 [BaP, Benzo(a)pyrene]
- Gene expression data AF000969 (Cadps2) (24 h average): −1.91
- Gene expression data AF022072 (Grb10) (24 h average): −0.2844
- Gene expression data AF065917 (Lif) (24 h average): 0.9227
- Gene expression data AF297615 (Ggta1) (24 h average): 1.735
- Gene expression data AI594683 (Dmn) (24 h average): 0.731
- Gene expression data AI596632 (Ptprg /// LOC632664) (24 h average): −1.8362
- Gene expression data AI987929 (Ndrg1) (24 h average): −0.3648
- Gene expression data AK004419 (Fbxl17) (24 h average): −1.001
- Gene expression data AK005731 (1700007K13Rik) (24 h average): 2.016
- Gene expression data AK007766 (1810044A24Rik) (24 h average): −1.288
- Gene expression data AK007854 (1810053B23Rik) (24 h average): 0.3514
- Gene expression data AK009736 (Gpr137b /// LOC664862 /// LOC673335) (24 h average): 0.2174
- Gene expression data AK010447 (Smyd3) (24 h average): −1.0413
- Gene expression data AK014608 (4632434l11Rik) (24 h average): 1.665
- Gene expression data AK019979 (2610528E23Rik) (24 h average): −0.6154
- Gene expression data AV095209 (Mthfd1l) (24 h average): −0.5885
- Gene expression data AV141095 (1110033M05Rik) (24 h average): −1.058
- Gene expression data AV173571 (1700106N22Rik) (24 h average): −1.123
- Gene expression data AV219418 (Ldhb) (24 h average): 0.2781
- Gene expression data AV223474 (Zdhhc14) (24 h average): −1.375
- Gene expression data AV298304 (Homez) (24 h average): 0.6204
- Gene expression data AV327248 (Zfp365 /// LOC674611) (24 h average): 1.102
- Gene expression data AV377066 (9130221J18Rik) (24 h average): 0.7572
- Gene expression data AW240761 (Tbc1d5) (24 h average): −0.703
- Gene expression data AW543460 (Pard3) (24 h average): −0.6194
- Gene expression data AW543723 (24 h average): 1.993
- Gene expression data AW986246 (Maoa) (24 h average): 0.1617
- Gene expression data BB027848 (4732466D17Rik) (24 h average): 0.0761
- Gene expression data BB043558 (9230114K14Rik) (24 h average): 1.247
- Gene expression data BB275142 (AW456874) (24 h average): 1.003
- Gene expression data BB308836 (Ppm1l) (24 h average): −0.6122
- Gene expression data BB318221 (Zdhhc14) (24 h average): −1.679
- Gene expression data BB463610 (4632434l11Rik) (24 h average): 2.144
- Gene expression data BB526605 (Mipol1) (24 h average): −0.7419
- Gene expression data BB770528 (Rai2) (24 h average): 0.6977
- Gene expression data BB821363 (Scfd2) (24 h average): −1.403
- Gene expression data BC004827 (Psat1) (24 h average): −0.04097
- Gene expression data BC008626 (Icam1) (24 h average): 0.8234
- Gene expression data BC010462 (BC010462) (24 h average): 0.6663
- Gene expression data BC012247 (Dcxr) (24 h average): 0.4451
- Gene expression data BC012260 (Psmf1) (24 h average): 0.3127
- Gene expression data BC015270 (Hist2h3c2) (24 h average): 0.7908
- Gene expression data BC016073 (Cdkal1) (24 h average): −0.6631
- Gene expression data BC016265 (Ube2e2) (24 h average): −0.751
- Gene expression data BC019882 (Acaa1b) (24 h average): 2.0133
- Gene expression data BC025501 (Aaas) (24 h average): 1.5389
- Gene expression data BC025837 (Sbk1) (24 h average): 0.3802
- Gene expression data BC025915 (Cova1) (24 h average): −0.5396
- Gene expression data BC026422 (Tgm1) (24 h average): 0.6019
- Gene expression data BF719766 (Thyn1) (24 h average): 0.9747
- Gene expression data BG065754 (Ccng1) (24 h average): 0.8607
- Gene expression data BG066903 (Kif16b) (24 h average): −0.133
- Gene expression data BG069873 (Gnb1l) (24 h average): 1.299
- Gene expression data BG070887 (Gtdc1) (24 h average): −0.9734
- Gene expression data BG076151 (Ppm1d) (24 h average): 0.728
- Gene expression data BG261907 (Large) (24 h average): −1.3429
- Gene expression data BI651416 (Cdc42bpg) (24 h average): 1.679
- Gene expression data BI660702 (Ell3) (24 h average): 1.3867
- Gene expression data BM198879 (Ercc5) (24 h average): 1.054
- Gene expression data BM230508 (A030007D23Rik) (24 h average): 1.297
- Gene expression data NM_007987 (Fas) (24 h average): 0.8287
- Gene expression data NM_008522 (Ltf) (24 h average): 1.114
- Gene expression data NM_008576 (Abcc1) (24 h average): 0.1024
- Gene expression data NM_011176 (St14) (24 h average): 1.508
- Gene expression data NM_011316 (Saa4) (24 h average): 0.1871
- Gene expression data NM_012006 (Acot1) (24 h average): 3.255
- Gene expression data NM_013866 (Zfp385) (24 h average): 0.776
- Gene expression data NM_018770 (Igsf4a) (24 h average): −0.8982
- Gene expression data NM_021451 (Pmaip1) (24 h average): 0.6364
- Gene expression data NM_025770 (Atg10) (24 h average): −1.053
- Gene expression data NM_028803 (Gbe1) (24 h average): −0.5416
- Gene expression data NM_030697 (Ankrd47) (24 h average): 1.4578
- Gene expression data NM_053168 (Trim11) (24 h average): 0.823
- Gene expression data NM_134188 (Acot2) (24 h average): 0.5856
- Gene expression data Y15910 (Diap2) (24 h average): −1.352
- Gene expression AA561726 average (48 h): −1.7432
- Gene expression AF000969 average (48 h): −2.251
- Gene expression AF022072 average (48 h): −1.018
- Gene expression AF033112 average (48 h): 1.4254
- Gene expression AF055573 average (48 h): −1.5573
- Gene expression AF069954 average (48 h): 0.8863
- Gene expression AF297615 average (48 h): 1.572
- Gene expression AF335325 average (48 h): 1.4875
- Gene expression AI594683 average (48 h): 1.466
- Gene expression AI747296 average (48 h): −2.124
- Gene expression AK005731 average (48 h): 3.0498
